Our source for the IC50 values is patent publication US9394250B2, “Substituted pyrrolidines as factor xia inhibitors for the treatment thromboembolic diseases” (ONO PHARMACEUTICAL CO., LTD., priority 2012, dated 2016).

Holding throughout (format): biochemical
In one assay the target is Human Factor Xa (Homo sapiens (Human), UniProt P00742). Kind of assay: Factor Xa enzyme activity, chromogenic substrate S-2222. Particulars: human Factor Xa 0.18 U/mL, 300 μM S-2222, pH7.4; read-out: In vitro FXa inhibitory activity IC50. On the procedure:
(§1) Inhibitory activities of compounds of the present invention against factor XIa, Xa, XIIa, IXa, VIIa, plasma kallikrein or thrombin were evaluated using appropriate purified proteases and synthetic substrates. The rate of hydrolysis of the chromogenic substrate by the relevant protease was continuously measured at 405 nm. Inhibitory activity against each enzyme was calculated as % inhibition using the equation described below. % Inhibition=[[(rate without compound)−(rate with compound)]/(rate without compound)]×100%. Each half maximal inhibitory concentration (IC50) value was determined by plotting the concentration of compound of the invention against the % inhibition. (1-1) Factor XIa Enzyme Activity
(§2) Human Factor Xa (American Diagnostica Inc.) and human thrombin (Sigma) activities were measured at the enzyme concentrations of 0.18 U/mL and 0.12 U/mL, respectively in the same buffer containing 150 mM NaCl, 2 mg/mL PEG6000, 50 mM Tris-HCl (pH7.4), except that the reactions were started with 300 μM S-2222 ([…], Chromogenix) and 300 μM S-2366, respectively.

A further assay concerns the target human thrombin (Homo sapiens (Human), UniProt P00734). Nature of the assay: Thrombin enzyme activity, chromogenic substrate S-2366. The following applies: human thrombin 0.12 U/mL, 300 μM S-2366, pH7.4; read-out: In vitro Thrombin inhibitory activity IC50. How it is done:
as §1, §2

In a further assay the target is Human Factor XIa (Homo sapiens (Human), UniProt P03951). Nature of the assay: Factor XIa enzyme activity, chromogenic substrate S-2366. Particulars: purified human Factor XIa 0.1 U/mL, 300 μM S-2366, pH7.4; read-out: In vitro FXIa inhibitory activity IC50. How it is done: as §1
Human Factor XIa (Haematologic Technologies Inc.) activity was measured at an enzyme concentration of 0.1 U/mL in 150 mM NaCl, 5 mM KCl, 1 mg/mL PEG6000, 50 mM HEPES-NaOH (pH7.4) with 300 μM S-2366 (pyroGlu-Pro-Arg-pNA, Chromogenix).

pIC50: −log10 of the molar value. Counter-ions that a name gives are not always drawn.

Sequence of Human Factor XIa (P03951 388-625): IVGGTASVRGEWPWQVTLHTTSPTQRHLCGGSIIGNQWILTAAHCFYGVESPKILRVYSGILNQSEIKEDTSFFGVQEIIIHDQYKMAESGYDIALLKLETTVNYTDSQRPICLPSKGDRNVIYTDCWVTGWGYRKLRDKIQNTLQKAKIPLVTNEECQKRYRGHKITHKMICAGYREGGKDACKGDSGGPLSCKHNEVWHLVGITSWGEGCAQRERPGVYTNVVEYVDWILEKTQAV
Sequence of Human Factor XIa (P03951 19-387 partner): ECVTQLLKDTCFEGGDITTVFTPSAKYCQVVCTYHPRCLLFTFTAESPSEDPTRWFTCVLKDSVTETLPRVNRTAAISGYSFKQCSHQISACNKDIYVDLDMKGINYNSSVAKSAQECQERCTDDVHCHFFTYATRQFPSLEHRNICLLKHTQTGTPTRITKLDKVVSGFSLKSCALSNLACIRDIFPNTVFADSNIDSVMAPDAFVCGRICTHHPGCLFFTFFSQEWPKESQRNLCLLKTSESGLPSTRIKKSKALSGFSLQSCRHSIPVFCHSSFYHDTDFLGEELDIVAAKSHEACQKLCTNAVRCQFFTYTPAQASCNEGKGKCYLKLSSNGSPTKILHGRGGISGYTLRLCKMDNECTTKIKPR
Sequence of Human Factor Xa (P00742 235-488): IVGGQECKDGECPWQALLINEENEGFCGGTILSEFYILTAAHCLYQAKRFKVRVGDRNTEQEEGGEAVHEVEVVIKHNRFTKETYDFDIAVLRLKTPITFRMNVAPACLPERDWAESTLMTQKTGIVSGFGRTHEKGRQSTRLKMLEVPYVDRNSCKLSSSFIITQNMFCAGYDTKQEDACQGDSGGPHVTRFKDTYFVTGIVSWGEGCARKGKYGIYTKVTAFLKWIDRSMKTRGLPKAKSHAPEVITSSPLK
Sequence of Human Factor Xa (P00742 41-179 partner): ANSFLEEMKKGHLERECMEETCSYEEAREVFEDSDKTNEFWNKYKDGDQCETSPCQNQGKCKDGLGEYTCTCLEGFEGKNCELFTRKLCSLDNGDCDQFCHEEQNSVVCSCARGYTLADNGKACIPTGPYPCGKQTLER

As for `CS(=O)(=O)N1CCN([C@H]2C[C@@H](C(=O)Nc3ccc(C(=O)O)cc3)N(C(=O)C3CCN(C(=N)N)CC3)C2)CC1` [Example 9, 4-[({(2S,4S)-1-[(1-carbamimidoyl-4-piperidinyl)carbonyl]-4-[4-(methylsulfonyl)-1-piperazinyl]-2-pyrrolidinyl}carbonyl)amino]benzoic acid bis(trifluoroacetate)], the pIC50 is less than 4.00 on Human Factor Xa, less than 4.00 on human thrombin and 7.77 on Human Factor XIa.
In the case of `O=C(O)c1ccc(NC(=O)[C@@H]2C[C@H](N3CCOCC3)CN2C(=O)/C=C/c2cc(Cl)ccc2-n2cnnn2)cc1` [Example 37, 4-({[(2S,4S)-1-{(2E)-3-[5-chloro-2-(1H-tetrazol-1-yl)phenyl]-2-propenoyl}-4-(4-morpholinyl)-2-pyrrolidinyl]carbonyl}amino)benzoic acid trifluoroacetate], the negative-log IC50 (pIC50) at Human Factor Xa was less than 4.00; at human thrombin it was less than 4.00; at Human Factor XIa, 7.89.
`COC(=O)Nc1ccc(-c2[nH]c([C@@H]3C[C@H](N4CCN(S(C)(=O)=O)CC4)CN3C(=O)C3CCN(C(=N)N)CC3)nc2Cl)cc1` [Example 99, methyl [4-(2-{(2S,4S)-1-(1-carbamimidoyl-4-piperidinyl)carbonyl]-4-[4-(methylsulfonyl)-1-piperazinyl-2-pyrrolidinyl}-4-chloro-1H-imidazol-5-yl)phenyl]carbamate trihydrochloride]: the negative-log IC50 (pIC50) on Human Factor Xa was less than 4.00; on human thrombin, 4.08; at Human Factor XIa, 8.92.
For `COC(=O)Nc1ccc(-c2cnc([C@@H]3C[C@H](C4CCN(S(C)(=O)=O)CC4)CN3C(=O)C3CCN(C(=N)N)CC3)[nH]2)cc1` [Example 69, methyl [4-(2-{(2S,4R)-1-[(1-carbamimidoyl-4-piperidinyl)carbonyl]-4-[1-(methylsulfonyl)-4-piperidinyl]-2-pyrrolidinyl}-1H-imidazol-5-yl)phenyl]carbamate dihydrochloride] the same measures were less than 4.00, less than 4.00 and 8.13.
For the molecule `NC[C@H]1CC[C@H](C(=O)N2C[C@@H](N3CCN(S(=O)(=O)C4CC4)CC3)C[C@H]2C(=O)Nc2ccc(C(=O)O)cc2)CC1` [Example 55, 4-[({(2S,4S)-1-{[trans-4-(aminomethyl)cyclohexyl]carbonyl}-4-[4-(cyclopropylsulfonyl)-1-piperazinyl]-2-pyrrolidinyl}carbonyl)amino]benzoic acid bis(trifluoroacetate)], the pIC50 at Human Factor Xa is less than 4.00; at human thrombin it was less than 4.00; at Human Factor XIa, 7.85.
As for `COC(=O)Nc1ccc(-c2[nH]c([C@@H]3C[C@H](C4CCN(S(C)(=O)=O)CC4)CN3C(=O)N3CCN(C(=N)N)CC3)nc2Cl)cc1` [Example 88, methyl [4-(2-{(2S,4R)-1-[(4-carbamimidoyl-1-piperazinyl)carbonyl]-4-[1-(methylsulfonyl)-4-piperidinyl]-2-pyrrolidinyl}-4-chloro-1H-imidazol-5-yl)phenyl]carbamate bis(trifluoroacetate)], the values for the pIC50 at Human Factor Xa, on human thrombin and at Human Factor XIa were less than 4.00, 4.24 and 8.27, respectively.
For `COC(=O)Nc1ccc(-c2[nH]c([C@@H]3C[C@H](C4CCN(S(C)(=O)=O)CC4)CN3C(=O)c3ccc(NC(=N)N)cc3)nc2Cl)cc1` [Example 79, methyl [4-(2-{(2S,4R)-1-(4-carbamimidamidobenzoyl)-4-[1-(methylsulfonyl)-4-piperidinyl]-2-pyrrolidinyl}-4-chloro-1H-imidazol-5-yl)phenyl]carbamate bis(trifluoroacetate)] the same measures were less than 4.00, 4.40 and 8.19.
In the same order, the values of `C[C@H]1CN([C@H]2C[C@@H](C(=O)Nc3ccccc3)N(C(=O)/C=C/c3cc(Cl)ccc3-n3cnnn3)C2)CCN1S(N)(=O)=O` [Example 57, (2S,4S)-1-{(2E)-3-[5-chloro-2-(1H-tetrazol-1-yl)phenyl]-2-propenoyl}-4-[(3S)-3-methyl-4-sulfamoyl-1-piperazinyl]-N-phenyl-2-pyrrolidinecarboxamide trifluoroacetate] are less than 4.00, less than 4.00 and 7.57.
For `O=C(Nc1ccccc1)[C@@H]1C[C@H](N2CCN(S(=O)(=O)c3ccccc3)CC2)CN1C(=O)/C=C/c1cc(Cl)ccc1-n1cnnn1` [Example 39, (2S,4S)-1-{(2E)-3-[5-chloro-2-(1H-tetrazol-1-yl)phenyl]-2-propenoyl}-N-phenyl-4-[4-(phenylsulfonyl)-1-piperazinyl]-2-pyrrolidinecarboxamide] the same measures were less than 4.00, less than 4.00 and 7.11.
For the molecule `COC(=O)Nc1ccc(-c2cnc([C@@H]3C[C@H](N4CCN(S(C)(=O)=O)CC4)CN3C(=O)C3CCN(C(=N)N)CC3)[nH]2)cc1` [Example 98, methyl [4-(2-(2S,4S)-1-[(1-carbamimidoyl-4-piperidinyl)carbonyl]-4-[4-(methylsulfonyl)-1-piperazinyl]-2-pyrrolidinyl-1H-imidazol-5-yl)phenyl]carbamate trihydrochloride], the figures for the pIC50 at Human Factor Xa, at human thrombin and on Human Factor XIa were less than 4.00, less than 4.00 and 8.64, respectively.
On to `COC(=O)Nc1ccc(-c2[nH]c([C@@H]3C[C@H](C4CCN(S(C)(=O)=O)CC4)CN3C(=O)[C@H]3CC[C@H]([C@H](C)N)CC3)nc2Cl)cc1` [Example 86, methyl [4-(2-{(2S,4R)-1-({trans-4-[(1S)-1-aminoethyl]cyclohexyl}carbonyl)-4-[1-(methylsulfonyl)-4-piperidinyl]-2-pyrrolidinyl}-4-chloro-1H-imidazol-5-yl)phenyl]carbamate bis(trifluoroacetate)], for which the negative logarithm of the IC50 (pIC50) is less than 4.00 on Human Factor Xa, less than 4.00 at human thrombin and 8.00 on Human Factor XIa.
Turning to `COC(=O)Nc1ccc(-c2cnc([C@@H]3C[C@H](C4CCN(S(C)(=O)=O)CC4)CN3C(=O)c3ccc(C(=N)N)cc3)[nH]2)cc1` [Example 73, methyl [4-(2-{(2S,4R)-1-(4-carbamimidoylbenzoyl)-4-[1-(methylsulfonyl)-4-piperidinyl]-2-pyrrolidinyl}-1H-imidazol-5-yl)phenyl]carbamate dihydrochloride], the pIC50 at Human Factor Xa is less than 4.00; on human thrombin, 4.43; at Human Factor XIa it was 8.36.
For `Cn1cc(Cl)c2c(F)c(C(=O)N3C[C@@H](C4CCN(S(C)(=O)=O)CC4)C[C@H]3C(=O)Nc3ccc(C(=O)O)cc3)ccc21` [Example 93, 4-[({(2S,4R)-1-[(3-chloro-4-fluoro-1-methyl-1H-indol-5-yl)carbonyl]-4-[1-(methylsulfonyl)-4-piperidinyl]-2-pyrrolidinyl}carbonyl)amino]benzoic acid], the negative-log IC50 (pIC50) is less than 4.00 on Human Factor Xa, less than 4.00 at human thrombin and 7.74 on Human Factor XIa.
With `COC(=O)Nc1ccc(-c2[nH]c([C@@H]3C[C@H](C4CCN(S(C)(=O)=O)CC4)CN3C(=O)[C@H]3CC[C@H](CN)CC3)nc2Cl)cc1` [Example 96, methyl [4-(2-{(2S,4R)-1-{[4-(aminomethyl)cyclohexyl]carbonyl}-4-[1-(methylsulfonyl)-4-piperidinyl]-2-pyrrolidinyl}-4-chloro-1H-imidazol-5-yl)phenyl]carbamate bis(trifluoroacetate)], the negative-log IC50 (pIC50) was less than 4.00 on Human Factor Xa, less than 4.00 on human thrombin and 8.38 at Human Factor XIa.
Consider `COC(=O)Nc1ccc(-c2[nH]c([C@@H]3C[C@H](C4CCN(S(C)(=O)=O)CC4)CN3C(=O)C3CCN(C(=N)N)CC3)nc2Cl)cc1` [Example 71, methyl [4-(2-{(2S,4R)-1-[(1-carbamimidoyl-4-piperidinyl)carbonyl]-4-[1-(methylsulfonyl)-4-piperidinyl]-2-pyrrolidinyl}-4-chloro-1H-imidazol-5-yl)phenyl]carbamate dihydrochloride], for which the pIC50 on Human Factor Xa was less than 4.00; at human thrombin it was 4.03; at Human Factor XIa, 8.66.
For `O=C(Nc1ccc2nn[nH]c2c1)[C@@H]1C[C@H](N2CCOCC2)CN1C(=O)/C=C/c1cc(Cl)ccc1-n1cnnn1` [Example 43, (2S,4S)—N-(1H-benzotriazol-6-yl)-1-{(2E)-3-[5-chloro-2-(1H-tetrazol-1-yl)phenyl]-2-propenoyl}-4-(4-morpholinyl)-2-pyrrolidinecarboxamide trifluoroacetate] the same measures were less than 4.00, less than 4.00 and 7.96.
On to `CS(=O)(=O)N1CCC([C@H]2C[C@@H](C(=O)Nc3ccc(C(=O)O)cc3)N(C(=O)c3ccc(C(=N)N)cc3)C2)CC1` [Example 111, 4-[({(2S,4R)-1-(4-carbamimidoylbenzoyl-4-[1-(methylsulfonyl)-4-piperidinyl]-2-pyrrolidinyl}carbonyl)amino]benzoic acid hydrochloride], for which the negative logarithm of the IC50 (pIC50) at human thrombin is less than 4.00; on Human Factor XIa, 8.07.

Usually pIC50 stands for the negative decadic logarithm of the IC50, by convention in mol/L.
